Source: article PMC8007111, “Novel Potent Muscarinic Receptor Antagonists: Investigation on the Nature of Lipophilic Substituents in the 5- and/or 6-Positions of the 1,4-Dioxane Nucleus” (Journal of Medicinal Chemistry, 2020)

System: MSCs from mouse bone marrow
Test: MSC viability (MTS assay), dose-response
Type: cell-based
Conditions: 24 h
Experimental: It is well established that bone marrow MSC behavior is influenced by a variety of signaling systems. In context, cholinergic intramural stimuli and, in particular, muscarinic signals orchestrate MSCs viability and commitment.[11],[12] Considering also the pluripotent MSC nature and their contribution to bone, blood, and systemic homeostasis,[53] viability studies on MSCs were performed to determine the functional profile of 3b, the most interesting compound in this series. […] Successively, the efficacy of 3b in contrasting cell viability induced by the well-known mAChR agonist carbachol was evaluated. […] Further research on the intracellular mechanistic outcomes of 3b on MSCs remains mandatory.
The in vitro studies were performed by using bone marrow MSCs as a model. […] After 2 weeks of initiating culture, cells were washed with PBS, detached by trypsinization, counted, and plated at the density of 5,000 cells/well in 96 culture plates (Costar Corp., Milano, Italy) in DMEM containing 10% HIFCS, penicillin, and streptomycin.
MSCs were treated with compound 3b (from 10^–4 to 10^–10 M) for 24 h. […] At the end of each procedure, the MSCs viability was measured by MTS assay. […] The quantity of the formazan product was directly proportional to the number of living cells in culture. The colored formazan was measured by reading the absorbance at 490 nm using a […] plate reader.

C[N+](C)(C)C[C@@H]1COC[C@](c2ccccc2)(C2CCCCC2)O1.[I-] (relative stereo) [3b, 1-((2R*,6R*)-6-Cyclohexyl-6-phenyl-1,4-dioxan-2-yl)-N,N,N-trimethylmethanaminium Iodide]
effect on MSCs viability (high concentration (10^–4 M)): down-regulate MSCs viability
effect on MSCs viability (low concentration (10^–10 M)): increased cell viability
